# Assay results taken from patent publication US4837342A, “Prostacyclin analogue, and blood circulation improving agent and anti-ulcer composition containing it as active ingredient” (Sagami Chemical Research Center, priority 1986, dated 1989).
# Where two headings read alike, the source gives them in different places.
# Tests used:
# [1] = test system: coronary artery; test: Blood flow-increasing activity in the coronary artery, anesthetized dog; assay type: in vivo, crossbred adult dog; settings: for ED50: Canis lupus familiaris, reactive hyperemia = 100%; for ED50 / Blood flow increase in coronary artery: dog, near arterial injection; for Activity ratio, blood flow-increasing activity in coronary artery: relative to prostacyclin = 1; for Blood flow increase in coronary artery: at 3 μg/kg
# Experimental: Blood flow-increasing activity in the coronary artery
# A crossbred adult dog having a weight of from 9 to 15 kg was anesthetized with sodium Pentobarbital and subjected to thoractomy under artificial respiration. After pericardiectomy, the frontal descending branch of the left coronary artery was separated from the surrounding tissues, and a blood flow-measuring probe was attached thereto under sodium heparin treatment. The coronary blood flow was measured by using an electromagnetic flow meter. The test compound was injected into the coronary artery by near arterial injection, and the blood flow-increasing activity in the coronay artery was represented by ED50 (i.e. the dose of a test compound at which the blood flow increases by 50%, as evaluated on the basis that the blood flow increase by the reactive hyperemia caused by releasing the blood flow of the coronary artery after blocking it for 15 seconds, is evaluated to be 100%).
# [2] = test system: Hydrochloric acid ulcer; test: Hydrochloric acid ulcer inhibiting activity; assay type: in vivo, wister rats; settings: rat; oral administration of 30 μg/kg; 0.6N hydrochloric acid; read-out: Hydrochloric acid ulcer inhibiting activity, Inhibiting rate
# Experimental: Hydrochloric acid ulcer inhibiting activity
# Male wister […] having a weight of from 190 to 240 g were used. The rats were starved in the same manner as in Test Example 6, and the test compounds and PGE2 were, respectively, orally administered in an amount of 30 μg/kg, and 30 minutes later, 1 ml of 0.6N hydrochloric acid was orally administered. Thirty minutes after the hydrochloric acid administration, each rat was killed by cervical vertebral luxation. Then, the stomach was taken out and fixed, and the ulcer index was obtained, in the same manner as in Test Example 6. The hydrochloric acid ulcer inhibiting activity of a test compound was represented by the inhibiting percentage (i.e. the percentage of the ulcer index of the treated group to the ulcer index of the non-treated group). To the non-treated group, the solvent was administered.
# [3] = test system: vertebral artery; test: Blood flow-increasing activity in the vertebral artery, anesthetized dog; assay type: in vivo, crossbred adult dog; settings: for ED50: Canis lupus familiaris, papaverine hydrochloride 100 μg/kg = 100%; for Activity ratio, blood flow-increasing activity in vertebral artery: relative to prostacyclin = 1
# Excerpt: Blood flow-increasing activity in the vertebral artery
# A made or female crossbred adult dog having a weight of from 8 to 13 kg was anesthetized by intravenous administration of sodium Pentobarbital and subjected to thoractomy along the mediam line under artificial respiration to expose the left vertebral artery. Under sodium peparin treatment, a polyethylene cannula was inserted into the vertebral artery, and a blood flow-measuring probe was attached to its other end, to which a blood circulation tube led from the left femoral artery was connected, whereby the blood flow in the vertebral artery was measured by using an electromagnetic flow meter. The test compound was injected into the vertebral artery by near arterial injection, and the blood flow-increasingactivity in the vertebral artery was represented by ED50 (i.e. the dose of a test compound at which the blood flow increases by 50%, as evaluated on the basis that the blood flow increase (representing substantially the maximum reaction) by the administration of 100 μg/kg papaverine hydrochloride into the vertebral artery, is evaluated to be 100%).
# [4] = test system: Blood platelet (ADP agglutination); test: Blood platelet agglutination inhibiting activity (ADP-induced), washed rabbit platelet suspension; assay type: cell-based, rabbit (Japanese white male rabbits); settings: for IC50: Oryctolagus cuniculus, Platelet, ADP 10 μM, concentration suppressing agglutination to 50%, read-out: Platelet agglutination inhibiting activity ED50, ADP agglutination; for Activity ratio, platelet agglutination inhibiting activity, ADP agglutination: relative to prostacyclin = 1
# Experimental: (§1) Blood platelet aggutination inhibiting activity
# (§2) Japanese white male rabbits having a weight of from 2.0 to 2.5 kg were used.
# (§3) Under anesthesia with sodium Pentobarbital, blood was sampled from the carotid artery, and mixed with a 1/7 volume of an anticoagulant citric acid dextrose solution. Then, the mixture was subjected to centrifugal separation at 140×g for 15 minutes, whereupon the supernatant (platelet rich plasma:PRP) was obtained. PRP was subjected to centrifugal separation at 1,300×g for 7 minutes. The blood platelet pellets thus obtained were washed with a HEPES buffer solution (pH 6.5) for washing blood platelets, and subjected to centrifugal separation at 1,300×g for 7 minutes. The blood platelet pellets washed twice under such condition, were suspended in a suspending liquid (a buffer solution for washing blood platelets, which contains 0.1% of human fibrinogen, 1.8 mM of CaCl2 and 1.2 mM of MgCl2) to obtain a blood platelet suspension having a concentration of from 5×10^8 to 8×10^8 platelets/ml.
# (§4) The platelet agglutination ability was measured by means of an agglutination meter. To 380 μl of the platelet suspension, 10 μl of a test compound or a solvent as the control, was added. Three minutes later, 10 μl of a platelet agglutinating substance (10 μM of ADP or 1 μg/ml of collagen, as the final concentration) was added thereto to induce agglutination.
# (§5) The blood platelet agglutination inhibiting activity of each test compound was represented by ED50 (i.e. the concentration of the test compound where the platelet agglutination is suppressed to 50%).
# [5] = test system: femoral artery; test: Blood flow-increasing activity in the femoral artery, anesthetized dog; assay type: in vivo, crossbred adult dog; settings: for ED50: Canis lupus familiaris, papaverine hydrochloride 100 μg/kg = 100%; for Activity ratio, blood flow-increasing activity in femoral artery: relative to prostacyclin = 1
# Experimental: Blood flow-increasing activity in the femoral artery
# A male or female crossbred adult dog having a weight of from 8 to 13 kg, was anesthetized by intravenous administration of sodium Pentobarbital. Then, a tracheal cannula was inserted, and artificial respiration was conducted. The blood flow in the femoral artery was measured by inserting the annula into the left femoral artery under sodium heparin treatment and providing a blood flow measuring probe at it other end, and by using an electromagnetic flow meter. The test compound was injected into the femoral artery by near arterial injection, and the blood flow-increasing activity in the femoral artery was represented by ED50 (i.e. the dose of a test compound at which the blood flow increases by 50%, as evaluated on the bais that the blood flow increase (representing substantially the maximum reaction) by the administration of 100 μg/kg of papaveline hydrochloride into the femoral artery, is evaluted to be 100%).
# [6] = test system: Indomethacine ulcer; test: Indomethacine ulcer inhibiting activity; assay type: in vivo, Male wister rats; settings: rat
# Excerpt: Indomethacine ulcer inhibiting activity
# Male wister rats having a weight of from 210 to 270 g were used. The rats were starved in the same manner as in Test Example 6. […] Three hours after the indomethacine administration, the test compound or PGE2 was again orally administered in the same amount. Six hours after the first administration of indomethacine, each rat was killed by cervical bertebral luxation. The stomach was taken out and fixed, and the ulcer index was obtained, in the same manner as in Test Example 6.
# The indomethacine ulcer inhibiting activity of a test compound was represented by the inhibiting percentage (i.e. the inhibiting percentage of the ulcer index of the treated group to the ulcer index of the non-treated group). To the non-treated group, the solvent was administered.
# [7] = test system: Ethanol ulcer; test: Ethanol ulcer inhibiting activity; assay type: in vivo, Male wister rats; settings: rat; for ED50: po, P.O., 30 minutes before 99.5% ethanol; for Ethanol ulcer inhibition: oral administration of 30 μg/kg
# Experimental: Ethanol ulcer inhibiting activity
# Male wister rats having a weight of from 170 to 270 g were put into individual cages and starved for 24 hours. During this starvation period, the rats were allowed to drink water freely. A test compound or PGE2 as a comparative compound was orally administered in an amount of 3, 10 or 30 μg/kg, and 30 minutes later, 1 ml of 99.5% ethanol was orally administered to each rat. One hour after the ethanol administration, each rat was filled by cervical vertebral luxation, and the stomach was taken out. A 1% formaline solution was injected into the stomach in an amount of about 8 ml, and the stomach was fixed in the formaline solution for 30 minutes. After the fixing, the stomach was severed along the greater curvature, and the mucous membrane surface of the stomach was gently washed with flowing water. Then, the total length of damages appearing on the gastric glandular portion was obtained and used as the ulcer index.
# The ethanol ulcer inhibiting activity of a test compound was represented by ED50 (i.e. the dose of the test compound at which the ulcer was inhibited by 50% relative to the ulcer index of the non-treated group). To the non-treated group, the solvent was administered.
# [8] = test system: diastolic blood pressure; test: Hypotensive activity, anesthetized dog; assay type: in vivo, crossbred adult dog; settings: for ED (50 mmHg): Canis lupus familiaris, iv; for Activity ratio, hypotensive activity: relative to prostacyclin = 1
# Experimental: A male or female crossbred adult dog having a weight of from 9 to 14 kg was anesthetized by intraveous administration of sodium Pentobarbital. Then, the left carotid was exposed under artificial respiration, and the blood pressure was measured by using an electric blood pressure meter. […]
# [9] = test system: Blood platelet (Collagen agglutination); test: Blood platelet agglutination inhibiting activity (collagen-induced), washed rabbit platelet suspension; assay type: cell-based, rabbit (Japanese white male rabbits); settings: for IC50: Oryctolagus cuniculus, Platelet, collagen 1 μg/ml, concentration suppressing agglutination to 50%, read-out: Platelet agglutination inhibiting activity ED50, Collagen agglutination; for Activity ratio, platelet agglutination inhibiting activity, Collagen agglutination: relative to prostacyclin = 1
# Experimental: as §1, §2, §3, §4, §5
# [10] = background; cited from earlier work
# [11] = oral administration of 60 μg/kg twice
# [12] = dog, at 3 μg/kg, near arterial injection
IC50 [4] [nM],IC50 [9] [nM],SMILES,ED50 [1] [µg/kg],"Activity ratio, blood flow-increasing activity in coronary artery [1]",inhibition in vivo at 0.03 mg/kg [2] [%],"ED50 ([3]; dog, near arterial injection) [µg/kg]","Activity ratio, blood flow-increasing activity in vertebral artery [3]","Activity ratio, platelet agglutination inhibiting activity, ADP agglutination [4]","ED50 ([5]; dog, near arterial injection) [µg/kg]","Activity ratio, blood flow-increasing activity in femoral artery [5]","Activity ratio, hypotensive activity [8]","Activity ratio, platelet agglutination inhibiting activity, Collagen agglutination [9]","Hypotensive activity, blood pressure decrease ([8]; dog, at 10 μg/kg i.v.) [mmHg]","Indomethacine ulcer inhibition (in words) [6, 11]",Ethanol ulcer inhibition [7] [%],Chemical stability (in words) [10],other results
38,,"CCC#CCC(C)[C@H](O)/C=C/[C@@H]1[C@H]2CCC(CCOCC(=O)O)=C[C@H]2C[C@H]1O (stereo partly drawn) [(g), 3(3-oxa-4-carboxybutyl)-7-exo-(3α-hydroxy-4,8-dimethyl-1-trans-octen-6-ynyl)-8-endo-hydroxy-cis-bicyclo[4,3,0]nona-2-ene]",0.55,1/55,42.1,2,1/45,1/13,0.72,1/30,1/67,,,,,,"Indomethacine ulcer inhibiting activity, Inhibiting rate [6, 11]: 57.3%; ED50 [7]: 5.38 µg/kg; ED (50 mmHg) ([8]; Table 2, read-out: Hypotensive activity ED50 mmHg): 16.1 µg/kg; ED (50 mmHg) ([8]; dog, femoral vein, Table 1, read-out: Hypotensive activity ED50 (dose reducing diastolic blood pressure by 50 mmHg)): 16 µg/kg"
22,24,CCC#CCC(C)[C@H](O)/C=C/[C@@H]1[C@H]2CC=C(CCCCC(=O)O)C[C@H]2C[C@H]1O (stereo partly shown) [(i)],3.6,1/360,17.4,0.8,1/18,,0.56,1/23,1/152,1/7,24.5,,,,"Indomethacine ulcer inhibiting activity, Inhibiting rate ([6]; oral administration of 10 μg/kg twice (so in the source)): 49.5%; ED50 [7]: 5.89 µg/kg; Hypotensive activity, blood pressure decrease ([8]; at 60 μg/kg i.v. (so in the source), Table 2): 24.5 mmHg"
> 3000,,CCC#CCC(C)[C@H](O)/C=C/[C@@H]1[C@H]2CCC(COCCC(=O)O)=C[C@H]2C[C@H]1O (stereo partly shown) [(h)],,,21.3,,,,,,,,15,Certain inhibition,32.5,,"Blood flow increase in coronary artery [1]: 25%; Blood flow increase in vertebral artery [3, 12]: 28.5%; Blood flow increase in femoral artery [5, 12]: 31.7%"
,,"CCCCC[C@H](O)/C=C/[C@@H]1[C@H]2CC(CCCCC(=O)O)=C[C@H]2C[C@H]1O [isocarbacyclin, 9(O)-methano-Δ^6(9α) -PGI1]",,,,,,,,,,,,,,adequately chemically stable,
,,CCCCC[C@H](O)/C=C/[C@@H]1[C@H]2C=C(CCCCC(=O)O)C[C@H]2C[C@H]1O [9-(O)-methano-Δ^6 -PGI1],,,,,,,,,,,,,,chemically stable,
,,O=C(O)CCC/C=C1\C[C@H]2C[C@@H](O)[C@H](/C=C/[C@@H](O)C3CCCC3)[C@H]2C1 [OP-41483],,,,,,,,,,,,,,chemically stable,
1300,970,"CCCCC[C@H](O)/C=C/[C@@H]1[C@H]2CCC(CCCC(=O)O)=C[C@H]2C[C@H]1O [(a), 3-(3-carboxypropyl)-7-exo-(3α-hydroxy-trans-1-octenyl)-8-endo-hydroxy-cis-bicyclo[4,3,0]nona-2-ene]",,About 1/500,15.3,0.44,1/10,1/455,0.19,1/8,1/192,1/285,20,Certain inhibition,20.0,,Blood flow increase in coronary artery [1]: 37.6%
290,280,"CCCCC[C@H](O)/C=C/[C@@H]1[C@H]2CCC(CCCCC(=O)O)=C[C@H]2C[C@H]1O [(e), 3-(4-carboxybutyl)-7-exo-(3α-hydroxy-trans-1-octenyl)-8-enodo-hydroxy-cis-bicyclo[4,3,0]nona-2-ene]",3.8,1/380,18.3,2.5,1/57,1/100,0.46,1/19,1/213,1/82,17.9,Certain inhibition,28.5,,
